{"source": "patent US11179452B2", "about": "“Antigen specific multi epitope vaccines” (priority 2006, dated 2021)", "type_in_all_cases": "cell-based, human", "key": {"[1]": {"tested_on": "lymphocytes from naive donors", "test": "Proliferation assay, kinetics of lymphocyte activation as summarised in text (presentation mode not stated)", "conditions": "summary of five experiments", "description": "(§1) Proliferation analysis was conducted in three different methods. In all three methods, plates were cultured for 3-5 days under visual control and then 0.5 […]Cu/well of 3[H] (Amersham) was added for additional culture of to 18 h at 37° C. In the last step, plates were harvested and the radioactive counts were measured in a □ counter. • 1. DC indirect presentation: In the first method, 100 µl of 2×10^6 thawed PBL were placed in U-shape Bottom 96 well plate (Nunc) with RPMI medium supplemented with 5% H AB serum, L-Glutamine, Sodium Pyruvate, MEM-EAGLE non-essential amino-acids, HEPES and Gentamycin. At the next stage 100 µl of 25×10^4 peptide-pulsed DC were added to each three wells of PBL and underwent proliferation analysis as described above. • 2. PBL direct presentation: In the 2nd method, 100 µl of 2×10^6 PBL were placed in Flat Bottom 96 well plates (Corning) and stimulated with different concentrations (0.05 ug/ml-2 ug/ml) of peptides. In the next step the cells underwent proliferation analysis as described above. • 3. PBMC direct presentation: In third method PNMC were used under similar conditions as described for the second method.\nA different parameter for assessing the properties of ImMucin and the other VXL-peptide epitopes is by analyzing the time until a maximal peak of activity occurs and the optimal dose for maximal stimulation. Maximal peak of PBL activation is determined when <50% of the PBLs appear in clumps. In these experiments, the kinetic (time) in the proliferation of lymphocytes from the six naive donors stimulated at a fix dose of 0.05-1 ug/ml by ImMucin and other VXL-Peptides, was observed."}, "[2]": {"tested_on": "PBL", "test": "Proliferation of PBL, direct presentation of peptide without APC", "experimental": "In all three methods, plates were cultured for 3-5 days under visual control and then 0.5 □Cu/well of 3[H] (Amersham) was added for additional culture of to 18 h at 37° C. […] DC indirect presentation: In the first method, 100 µl of 2×10^6 thawed PBL were placed in U-shape Bottom 96 well plate (Nunc) with RPMI medium supplemented with 5% H AB serum, L-Glutamine, Sodium Pyruvate, MEM-EAGLE non-essential amino-acids, HEPES and Gentamycin. At the next stage 100 µl of 25×10^4 peptide-pulsed DC were added to each three wells of PBL and underwent proliferation analysis as described above. • 2. PBL direct presentation: In the 2nd method, 100 µl of 2×10^6 PBL were placed in Flat Bottom 96 well plates (Corning) and stimulated with different concentrations (0.05 ug/ml-2 ug/ml) of peptides. In the next step the cells underwent proliferation analysis as described above. • 3. PBMC direct presentation: In third method PNMC were used under similar conditions as described for the second method.\nDirect presentation of peptides to PBL without any APC"}, "[3]": {"tested_on": "PBMC", "test": "Proliferation, direct presentation of peptide via PBMC (monocytes)", "description": "as §1\nb. Direct presentation of the peptides via PBMC i.e. monocytes\nFive experiments were performed according to the protocol described in material and methods with buffy-coat enriched PBLs obtained from six different naive donors (obtained from the Israeli blood bank)."}, "[4]": {"tested_on": "ImMucin specific T-cell subpopulation", "test": "Proliferation of the ImMucin-specific T-cell subpopulation after three stimulations", "conditions": "one out of two experiments, four donors", "text": "Thawed PBLs underwent 1st stimulation with ImMucin pulsed Autologues DC at a ratio of 20:1 and cultured for 7 days in dedicated T cell Medium. T cell medium contained RPMI medium supplemented with 10% FCS, L-Glutamine, Sodium Pyruvate, MEM-EAGLE non-essential amino-acids, HEPES and Gentamycin Sulphate (Bet-Haemek Industries, IL) as well as with 50 IU/ml of recombinant IL-7 (Cytolab IL). For the second stimulation, PBL were transferred to adherent autologues ImMucin-pulsed PBMC and cultured for additional 5 days in T cell Medium. At the end of the 5 days, medium was partial replaced with fresh medium containing 1 ug/ml of ImMucin and 50 IU/ml IL-2 for a third stimulation of 48 h at 37° C. Following the last stimulation ImMucin T cell line was checked for immune activation properties.\nas §1\nFor that purpose, an enriched ImMucin-specific T cell subpopulation was produced via repeated stimulation with ImMucin. The specificity of the subpopulation for ImMucin, as well as to the other VXL epitopes, was examined using proliferation assays, cytokine release assays, FACS analysis in which the percentage and type of cells enriched during the enrichment process was analyzed, and using a CTL assay against selected target cells.\nFor producing the specific T cell subpopulation PBL were stimulated three times for 7, 5 and 2 days with ImMucin presented via DC and PBMC. Following the 3rd stimulation the cells were evaluated against the different VXL epitopes."}, "[5]": {"conditions": "optimal dose required for PBL activation, average of 5 experiments, six donors"}, "[6]": {"conditions": "visual inspection daily during 5 days, average of 5 experiments"}}, "note": "No end group written: not given here.", "data": [{"sequence": "MTPGTQSPFFLLLLLTVLTVV [ImMucin]", "values": [{"measurement": "peak of proliferation / maximum stimulation", "setting": "[1]", "value": "~96", "unit": "h"}, {"measurement": "PBL Index of stimulation (SI) Direct no APC", "setting": "[2]; average of two healthy donors (Table 11)", "value": 0}, {"measurement": "Optimal dose Direct no APC", "setting": "[2]; [5]", "value": "No Influence"}, {"measurement": "Peak of Proliferation (Hours) Direct no APC", "setting": "[2]; [6]", "value": "No proliferation"}, {"measurement": "PBL Index of stimulation (SI) via PBMC", "setting": "[3]; naive donors, representative of 5 experiments", "value": 2}, {"measurement": "Optimal dose via PBMC", "setting": "[3]; [5]", "value": "0.05 to 1", "unit": "µg/mL"}, {"measurement": "Peak of Proliferation (Hours) via PBMC", "setting": "[3]; [6]", "value": 120, "unit": "h"}, {"measurement": "IS (Average)", "setting": "[4]", "value": 3.2}, {"measurement": "IS (Range)", "setting": "[4]", "value": "2.2-4.2"}]}]}
